Laboratory results reported in ChEMBL document CHEMBL3352398, “2-(2-Bromophenyl)-formononetin and 2-heptyl-formononetin are PPARγ partial agonists and reduce lipid accumulation in 3T3-L1 adipocytes” (Bioorg Med Chem, 2014).
The source made the active and inactive calls.

Columns and labels:
3T3-L1 [1] = test: Reduction of adipogenesis in mouse 3T3L1 cells assessed as decrease in lipid accumulation measured on day 8 by oil red o assay; type: functional, cell-based
3T3-L1 [2] = test: Reduction in lipogenesis in mouse 3T3L1 cells assessed as down regulation of Scd1 gene exression by real time-qPCR analysis; type: functional, cell-based
[3] = Cytotoxicity against mouse 3T3L1 cells assessed as effect on lactate dehydrogenase release at 5 to 50 uM measured on day 8; type: cell-based; details: 3t3-l1, 50 µM
3T3-L1 [4] = test: Effect on adipogenesis in mouse 3T3L1 cells in DI media assessed as reduction in lipid accumulation at 50 uM measured on day 8 by fluorescence-based AdipoRed assay; type: functional, cell-based
3T3-L1 [5] = test: Effect on adipogenesis in mouse 3T3L1 cells in DI media assessed as reduction in fat-laden mature adipocytes at 50 uM after 8 days by oil red o assay; type: functional, cell-based
3T3-L1 [6] = test: Induction of lipolysis in mouse 3T3L1 cells assessed as up-regulation of Atgl gene exression by real time-qPCR analysis; type: functional, cell-based
3T3-L1 [7] = test: Reduction in lipogenesis in mouse 3T3L1 cells assessed as down regulation of Fasn gene exression by real time-qPCR analysis; type: functional, cell-based
3T3-L1 [8] = test: Effect on adipogenesis in mouse 3T3L1 cells in DI media assessed as increase in fat-laden mature adipocytes at <25 uM after 8 days by oil red o assay; type: functional, cell-based
3T3-L1 [9] = test: Effect on adipogenesis in mouse 3T3L1 cells in DI media assessed as increase in lipid accumulation at <25 uM after 8 days by fluorescence-based AdipoRed assay; type: functional, cell-based
3T3-L1 [10] = test: Effect on adipogenesis in mouse 3T3L1 cells assessed as reduction in Adipoq gene expression at 5 to 50 uM after 8 days by real time quantitative PCR analysis relative to vehicle-treated control; type: functional, cell-based
[11] = Cytotoxicity against mouse 3T3L1 cells assessed as effect on lactate dehydrogenase release at 5 to 50 uM measured on day 2; type: cell-based; details: 3t3-l1, 50 µM
3T3-L1 [12] = test: Reduction in lipogenesis in mouse 3T3L1 cells assessed as down regulation of Acaca gene exression by real time-qPCR analysis; type: functional, cell-based
[13] = Cytotoxicity against mouse 3T3L1 cells assessed as LDH release at 50 uM after 48 hrs; type: cell-based; details: 3t3-l1, 48 h
3T3-L1 [14] = test: Effect on adipogenesis in mouse 3T3L1 cells assessed as reduction in Pparg gene expression at 5 to 50 uM after 8 days by real time quantitative PCR analysis relative to vehicle-treated control; type: functional, cell-based
[15] = biological target: T1, Peroxisome proliferator-activated receptor gamma (Homo sapiens) (UniProt P37231); test: Competitive binding to human GST-tagged PPAR-gamma at <=100 uM by TR-FRET assay
T1 sequence (whole entry): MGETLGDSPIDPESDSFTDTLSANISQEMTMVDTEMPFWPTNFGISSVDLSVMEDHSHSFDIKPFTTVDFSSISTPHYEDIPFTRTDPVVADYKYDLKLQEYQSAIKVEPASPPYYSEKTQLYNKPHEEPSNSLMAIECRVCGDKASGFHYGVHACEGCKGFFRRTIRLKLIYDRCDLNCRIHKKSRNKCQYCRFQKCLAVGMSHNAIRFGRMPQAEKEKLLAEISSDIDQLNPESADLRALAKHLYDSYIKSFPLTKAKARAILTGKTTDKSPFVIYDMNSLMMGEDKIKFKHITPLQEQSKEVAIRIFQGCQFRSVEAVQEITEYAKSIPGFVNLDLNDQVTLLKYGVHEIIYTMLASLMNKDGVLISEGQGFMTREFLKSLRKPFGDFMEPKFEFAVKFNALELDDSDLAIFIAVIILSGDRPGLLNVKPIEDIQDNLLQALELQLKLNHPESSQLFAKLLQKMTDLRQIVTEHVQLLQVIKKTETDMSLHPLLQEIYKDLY

3T3-L1 [16] = test: Induction of lipolysis in mouse 3T3L1 cells assessed as increase in glycerol level at 50 uM after 48 hrs by UV-Vis spectrophotometry; type: functional
3T3-L1 [17] = test: Effect on adipogenesis in mouse 3T3L1 cells assessed as reduction in Adipoq gene expression at 5 to 50 uM after 4 days by real time quantitative PCR analysis relative to vehicle-treated control; type: functional, cell-based
3T3-L1 [18] = test: Effect on adipogenesis in mouse 3T3L1 cells assessed as reduction in Cebpa gene expression at 5 to 50 uM after 8 days by real time quantitative PCR analysis relative to vehicle-treated control; type: functional, cell-based
3T3-L1 [19] = test: Effect on adipogenesis in mouse 3T3L1 cells assessed as reduction in Cebpa gene expression at 5 to 50 uM after 4 days by real time quantitative PCR analysis relative to vehicle-treated control; type: functional, cell-based

CCCCCCCc1oc2cc(O)ccc2c(=O)c1-c1ccc(OC)cc1
Non-toxic: Activity [3] | Activity [11]
2: fold change (FC) (3T3-L1 [16])
active: Activity (3T3-L1 [1]) Dose-dependent effect | Activity (3T3-L1 [2]) | Activity (3T3-L1 [4]) | Activity (3T3-L1 [5]) | Activity (3T3-L1 [6]) | Activity (3T3-L1 [7]) | Activity (3T3-L1 [8]) | Activity (3T3-L1 [9]) | Activity (3T3-L1 [10]) Dose-dependent effect | Activity (3T3-L1 [12]) | Activity (3T3-L1 [14]) Dose-dependent effect | Activity [15] | Activity (3T3-L1 [17]) Dose-dependent effect | Activity (3T3-L1 [18]) Dose-dependent effect | Activity (3T3-L1 [19]) Dose-dependent effect
Toxic: Activity [13]
